The text below walks through data of ChEMBL document CHEMBL1127186, “Probing a catalytic antibody active site using spin-labelled haptens” (Bioorg Med Chem Lett, 1993).

Data set [1] can be described thus: Kinetic parameter of antibody 48G7 in 10 mM Tris HCl, 50 mM NaCl, pH 8.27.
Data set [2] can be described thus: Dissociation constant from ESR titration experiments. The data set is classed as physicochemical.
A short description of data set [3]: Compound was evaluated for the inhibition of antibody (Antibody 48G7) catalyzed reaction.

In turn, `CC(=O)Oc1ccc([N+](=O)[O-])cc1` yielded a k cat in data set [1] of 0.0633 s⁻¹.
Turning to `CC1(C)CC(OP(=O)(O)Oc2ccc([N+](=O)[O-])cc2)CC(C)(C)N1[O]`, the Kd (in general, the free concentration of one partner at which half of the binding sites on the other are occupied at equilibrium, for simple one-to-one binding) in data set [2] came to 4.3 µM. This lies in the single-digit micromolar range.
In the case of `COC(=O)CCCOC(=O)Oc1ccc([N+](=O)[O-])cc1`, in data set [1], the Km (usually the substrate concentration at which the rate is half of its maximum) stood at 360 µM and the k cat came out at 0.437 s⁻¹.
With `Cc1cccc(P(=O)(O)O)c1[N+](=O)[O-]` [METHYLNITROPHENYLPHOSPHONATE], the affinity in data set [3], expressed as Ki, was 0.56 µM.
Regarding `COC(=O)Oc1ccc([N+](=O)[O-])cc1`, in data set [1], the Km was found to be 430 µM and the k cat was 0.123 s⁻¹.
In the case of `COC(=O)CCCC(=O)Oc1ccc([N+](=O)[O-])cc1`, in data set [1], the Michaelis constant (Km) worked out at 300 µM and the k cat worked out at 0.367 s⁻¹.
`CC1(C)CC(OP(=O)(O)Oc2ccc([N+](=O)[O-])cc2)C(C)(C)N1[O]` (stereo not given) gave a Kd in data set [2] of 6.4 µM.
